Drawing on ChEMBL document CHEMBL2331518, “Rapid microwave-enhanced synthesis of C5-alkynyl pyranonucleosides as novel cytotoxic antitumor agents” (Bioorg Med Chem Lett, 2013), this text covers Activity and IC50 for four compounds.

In test [1] the test system is Human immunodeficiency virus 2. Briefly: Antiviral activity against HIV2 ROD infected in human CEM cells assessed as reduction of virus-induced cytopathicity after 4 to 5 days. It counts as functional, organism-based. The settings on record: ISOLATE ROD, CCRF-CEM. For orientation: Damage to the host cells serves as the signal in cytopathic effect assays.
For test [2], the system named is Sindbis virus. Briefly: Antiviral activity against Sindbis virus by cell based assay. In kind it is functional, organism-based.
The subject of test [3] is Human alphaherpesvirus 1. Briefly: Antiviral activity against HSV-1 KOS by cell based assay. In kind it is functional, organism-based.
Test [4] concerns Punta Toro virus. As to the kind of experiment: Antiviral activity against Punta Toro virus by cell based assay. In kind it is functional, organism-based.
Test [5] has as its system Influenza A virus. Briefly: Antiviral activity against Influenza A virus H3N2 by cell based assay. In kind it is functional, organism-based.
Test [6] deals with Human alphaherpesvirus 1. As to the kind of experiment: Antiviral activity against kinase-deficient acyclovir-resistant HSV-1 KOS by cell based assay. It counts as functional, organism-based.
Test [7] deals with L1210. As to the kind of experiment: Cytotoxicity against mouse L1210 cells after 48 hrs. It counts as functional, cell-based. The settings on record: L1210, 48 h.
For test [8], the system named is Vaccinia virus. Briefly: Antiviral activity against Vaccinia virus Lederle by cell based assay. In kind it is functional, organism-based. The note with it: Orthopoxvirus vaccinia.
For test [9], the system named is Vesicular stomatitis virus. As to the kind of experiment: Antiviral activity against Vesicular stomatitis virus by cell based assay. It counts as functional, organism-based.
Test [10] has as its system CCRF-CEM. As to the kind of experiment: Cytotoxicity against human CEM cells after 72 hrs. In kind it is functional, cell-based.
The subject of test [11] is Human alphaherpesvirus 2. As to the kind of experiment: Antiviral activity against HSV-2 Lyons by cell based assay. It counts as functional, organism-based.
Test [12] concerns Human respirovirus 3. As to the kind of experiment: Antiviral activity against Parainfluenza-3 virus by cell based assay. It counts as functional, organism-based.
The subject of test [13] is Human immunodeficiency virus 1. As to the kind of experiment: Antiviral activity against HIV1 3B infected in human CEM cells assessed as reduction of virus-induced cytopathicity after 4 to 5 days. In kind it is functional, organism-based. The note with it: CCRF-CEM.
Test [14] has as its system Human alphaherpesvirus 2. Briefly: Antiviral activity against HSV-2 G by cell based assay. It counts as functional, organism-based. The note with it: strain G.
The subject of test [15] is Mammalian orthoreovirus 1. As to the kind of experiment: Antiviral activity against Reovirus-1 by cell based assay. It counts as functional, organism-based.
For test [16], the system named is HeLa. As to the kind of experiment: Cytotoxicity against human HeLa cells after 72 hrs. In kind it is functional, cell-based.
In test [17] the test system is Influenza B virus. Briefly: Antiviral activity against Influenza B virus by cell based assay. It counts as functional, organism-based.
The subject of test [18] is Influenza A virus. Briefly: Antiviral activity against Influenza A virus H1N1 by cell based assay. In kind it is functional, organism-based.
Test [19] deals with Coxsackievirus B4. Briefly: Antiviral activity against Coxsackie virus B4 by cell based assay. In kind it is functional, organism-based.
The test system of test [20] is Respiratory syncytial virus. Briefly: Antiviral activity against Respiratory syncytial virus Long by cell based assay. In kind it is functional, organism-based.

Active and inactive are the calls of the source. The rule behind the calls is not given here. Where only a bound is given, the exact number is not on record here.

Usually IC50 stands for the concentration that inhibits the measured activity by half. Low values mean greater potency in that assay, high ones weaker potency in that assay.

`O=c1[nH]c(=O)n([C@@H]2O[C@H](CO)[C@@H](O)[C@H](O)[C@H]2O)cc1C#Cc1ccccn1`: the result in [1], in [2], in test [3], in test [4], in [5] and in test [6] was inactive. Moreover, the result in test [8], in test [9], in test [11], in test [12], in test [13] and in test [14] was inactive. Besides, the outcome in test [15], in [17], in [18], in [19] and in test [20] was inactive. Moreover, the values for the IC50 in [7], in test [10] and in [16] were 71 µM, 79 µM and 66 µM, respectively.
Turning to `O=c1[nH]c(=O)n([C@@H]2O[C@H](CO)[C@@H](O)[C@H](O)[C@H]2O)cc1C#Cc1cccnc1`, the result in [1], in test [2], in [3], in test [4], in test [5] and in [6] was inactive. The outcome in test [8], in test [9], in [11], in test [12], in test [13] and in [14] was inactive. The result in test [15], in [17], in [18], in [19] and in test [20] was inactive. Also, the IC50 in test [7], in test [10] and in test [16] was above 250 µM each time.
Turning to `C[n+]1cccc(C#Cc2cn([C@@H]3O[C@H](CO)[C@@H](O)[C@H](O)[C@H]3O)c(=O)[nH]c2=O)c1`, the outcome in test [1], in test [2], in [3], in test [4], in test [5] and in [6] was inactive. In addition, the outcome in test [8], in [9], in test [11], in test [12], in test [13] and in test [14] was inactive. Also, the outcome in [15], in [17], in [18], in test [19] and in test [20] was inactive. For the same compound, the IC50 in test [7], in [10] and in [16] was above 250 µM throughout.
Take `CCCCCc1cc2cn([C@@H]3O[C@H](CO)[C@@H](O)[C@H](O)[C@H]3O)c(=O)nc2o1`: the result in test [1], in test [2], in test [3], in [4], in test [5] and in [6] was inactive. Also, the result in test [8], in [9], in test [11], in test [12], in test [13] and in test [14] was inactive. Besides, the outcome in test [15], in test [17], in test [18], in test [19] and in test [20] was inactive. The half-inhibitory concentration (IC50) in test [7] is at least 250 µM; in [10], above 250 µM; in [16], above 250 µM.
